In ChEMBL document CHEMBL3763148, “Synthesis, structure elucidation, DNA-PK and PI3K and anti-cancer activity of 8- and 6-aryl-substituted-1-3-benzoxazines” (Eur J Med Chem, 2016):

Key:
SR = test: Cytotoxicity against human SR cells assessed as cell growth inhibition at 10 uM after 48 hrs by SRB assay relative to control; type: functional; conditions: read-out: GI
[1] = Cytotoxicity against human SW620 cells assessed as cell growth inhibition at 10 uM after 48 hrs by SRB assay relative to control; type: functional; conditions: SW-620, 48 h, read-out: GI
[2] = Cytotoxicity against human SNB75 cells assessed as cell growth inhibition at 10 uM after 48 hrs by SRB assay relative to control; type: functional; conditions: SNB-75, 48 h, read-out: GI
[3] = Cytotoxicity against human SF268 cells assessed as cell growth inhibition at 10 uM after 48 hrs by SRB assay relative to control; type: functional; conditions: SF-268, 48 h, read-out: GI
[4] = Cytotoxicity against human RXF393 cells assessed as cell growth inhibition at 10 uM after 48 hrs by SRB assay relative to control; type: functional; conditions: RXF 393, 48 h, read-out: GI
[5] = Cytotoxicity against human OVCAR8 cells assessed as cell growth inhibition at 10 uM after 48 hrs by SRB assay relative to control; type: functional; conditions: OVCAR-8, 48 h, read-out: GI
K562 = test: Cytotoxicity against human K562 cells assessed as cell growth inhibition at 10 uM after 48 hrs by SRB assay relative to control; type: functional; conditions: K562, 48 h, read-out: GI
NCI-H23 = test: Cytotoxicity against human NCI-H23 cells assessed as cell growth inhibition at 10 uM after 48 hrs by SRB assay relative to control; type: functional; conditions: NCI-H23, 48 h, read-out: GI
[6] = Cytotoxicity against human OVCAR4 cells assessed as cell growth inhibition at 10 uM after 48 hrs by SRB assay relative to control; type: functional; conditions: OVCAR-4, 48 h, read-out: GI
[7] = Cytotoxicity against human RPMI8226 cells assessed as cell growth inhibition at 10 uM after 48 hrs by SRB assay relative to control; type: functional; conditions: RPMI-8226, 48 h, read-out: GI
MDA-MB-435 = test: Cytotoxicity against human MDA-MB-435 cells assessed as cell growth inhibition at 10 uM after 48 hrs by SRB assay relative to control; type: functional; conditions: MDA-MB-435, 48 h, read-out: GI
[8] = Cytotoxicity against human HCC2998 cells assessed as cell growth inhibition at 10 uM after 48 hrs by SRB assay relative to control; type: functional; conditions: HCC 2998, 48 h, read-out: GI
T47D = test: Cytotoxicity against human T47D cells assessed as cell growth inhibition at 10 uM after 48 hrs by SRB assay relative to control; type: functional; conditions: read-out: GI
HT-29 = test: Cytotoxicity against human HT-29 cells assessed as cell growth inhibition at 10 uM after 48 hrs by SRB assay relative to control; type: functional; conditions: HT-29, 48 h, read-out: GI
[9] = Cytotoxicity against human HOP92 cells assessed as cell growth inhibition at 10 uM after 48 hrs by SRB assay relative to control; type: functional; conditions: HOP-92, 48 h, read-out: GI
A498 = test: Cytotoxicity against human A498 cells assessed as cell growth inhibition at 10 uM after 48 hrs by SRB assay relative to control; type: functional; conditions: A498, 48 h, read-out: GI
[10] = Cytotoxicity against human Hs 578T cells assessed as cell growth inhibition at 10 uM after 48 hrs by SRB assay relative to control; type: functional; conditions: read-out: GI
[11] = Cytotoxicity against human HOP62 cells assessed as cell growth inhibition at 10 uM after 48 hrs by SRB assay relative to control; type: functional; conditions: HOP-62, 48 h, read-out: GI
M14 = test: Cytotoxicity against human M14 cells assessed as cell growth inhibition at 10 uM after 48 hrs by SRB assay relative to control; type: functional; conditions: M14, 48 h, read-out: GI
SN12C = test: Cytotoxicity against human SN12C cells assessed as cell growth inhibition at 10 uM after 48 hrs by SRB assay relative to control; type: functional; conditions: read-out: GI
[12] = Cytotoxicity against human NCI-ADR-RES cells assessed as cell growth inhibition at 10 uM after 48 hrs by SRB assay relative to control; type: functional; conditions: read-out: GI
ACHN = test: Cytotoxicity against human ACHN cells assessed as cell growth inhibition at 10 uM after 48 hrs by SRB assay relative to control; type: functional; conditions: read-out: GI
[13] = Cytotoxicity against human DU145 cells assessed as cell growth inhibition at 10 uM after 48 hrs by SRB assay relative to control; type: functional; conditions: DU-145, 48 h, read-out: GI
MCF7 = test: Cytotoxicity against human MCF7 cells assessed as cell growth inhibition at 10 uM after 48 hrs by SRB assay relative to control; type: functional; conditions: MCF7, 48 h, read-out: GI
MDA-MB-231 = test: Cytotoxicity against human MDA-MB-231 cells assessed as cell growth inhibition at 10 uM after 48 hrs by SRB assay relative to control; type: functional; conditions: MDA-MB-231, 48 h, read-out: GI
[14] = target: DNA-dependent protein kinase catalytic subunit (Homo sapiens, UniProt P78527); test: Inhibition of human DNA-PK using EPPLSQEAFADLWKK as substrate by HTRF assay
[15] = Cytotoxicity against human IGROV1 cells assessed as cell growth inhibition at 10 uM after 48 hrs by SRB assay relative to control; type: functional; conditions: IGROV-1, 48 h, read-out: GI
[16] = Cytotoxicity against human PC3 cells assessed as cell growth inhibition at 10 uM after 48 hrs by SRB assay relative to control; type: functional; conditions: PC-3, 48 h, read-out: GI
[17] = Cytotoxicity against human HCT15 cells assessed as cell growth inhibition at 10 uM after 48 hrs by SRB assay relative to control; type: functional; conditions: HCT-15, 48 h, read-out: GI
[18] = Cytotoxicity against human HCT116 cells assessed as cell growth inhibition at 10 uM after 48 hrs by SRB assay relative to control; type: functional; conditions: HCT-116, 48 h, read-out: GI
NCI-H522 = test: Cytotoxicity against human NCI-H522 cells assessed as cell growth inhibition at 10 uM after 48 hrs by SRB assay relative to control; type: functional; conditions: NCI-H522, 48 h, read-out: GI
[19] = Cytotoxicity against human OVCAR3 cells assessed as cell growth inhibition at 10 uM after 48 hrs by SRB assay relative to control; type: functional; conditions: OVCAR-3, 48 h, read-out: GI
SK-MEL-28 = test: Cytotoxicity against human SK-MEL-28 cells assessed as cell growth inhibition at 10 uM after 48 hrs by SRB assay relative to control; type: functional; conditions: SK-MEL-28, 48 h, read-out: GI
[20] = Cytotoxicity against human OVCAR5 cells assessed as cell growth inhibition at 10 uM after 48 hrs by SRB assay relative to control; type: functional; conditions: OVCAR-5, 48 h, read-out: GI
A549 = test: Cytotoxicity against human A549 cells assessed as cell growth inhibition at 10 uM after 48 hrs by SRB assay relative to control; type: functional; conditions: A549, 48 h, read-out: GI
[21] = Cytotoxicity against human SF295 cells assessed as cell growth inhibition at 10 uM after 48 hrs by SRB assay relative to control; type: functional; conditions: SF-295, 48 h, read-out: GI

DNA-dependent protein kinase catalytic subunit, sequence (P78527 whole entry): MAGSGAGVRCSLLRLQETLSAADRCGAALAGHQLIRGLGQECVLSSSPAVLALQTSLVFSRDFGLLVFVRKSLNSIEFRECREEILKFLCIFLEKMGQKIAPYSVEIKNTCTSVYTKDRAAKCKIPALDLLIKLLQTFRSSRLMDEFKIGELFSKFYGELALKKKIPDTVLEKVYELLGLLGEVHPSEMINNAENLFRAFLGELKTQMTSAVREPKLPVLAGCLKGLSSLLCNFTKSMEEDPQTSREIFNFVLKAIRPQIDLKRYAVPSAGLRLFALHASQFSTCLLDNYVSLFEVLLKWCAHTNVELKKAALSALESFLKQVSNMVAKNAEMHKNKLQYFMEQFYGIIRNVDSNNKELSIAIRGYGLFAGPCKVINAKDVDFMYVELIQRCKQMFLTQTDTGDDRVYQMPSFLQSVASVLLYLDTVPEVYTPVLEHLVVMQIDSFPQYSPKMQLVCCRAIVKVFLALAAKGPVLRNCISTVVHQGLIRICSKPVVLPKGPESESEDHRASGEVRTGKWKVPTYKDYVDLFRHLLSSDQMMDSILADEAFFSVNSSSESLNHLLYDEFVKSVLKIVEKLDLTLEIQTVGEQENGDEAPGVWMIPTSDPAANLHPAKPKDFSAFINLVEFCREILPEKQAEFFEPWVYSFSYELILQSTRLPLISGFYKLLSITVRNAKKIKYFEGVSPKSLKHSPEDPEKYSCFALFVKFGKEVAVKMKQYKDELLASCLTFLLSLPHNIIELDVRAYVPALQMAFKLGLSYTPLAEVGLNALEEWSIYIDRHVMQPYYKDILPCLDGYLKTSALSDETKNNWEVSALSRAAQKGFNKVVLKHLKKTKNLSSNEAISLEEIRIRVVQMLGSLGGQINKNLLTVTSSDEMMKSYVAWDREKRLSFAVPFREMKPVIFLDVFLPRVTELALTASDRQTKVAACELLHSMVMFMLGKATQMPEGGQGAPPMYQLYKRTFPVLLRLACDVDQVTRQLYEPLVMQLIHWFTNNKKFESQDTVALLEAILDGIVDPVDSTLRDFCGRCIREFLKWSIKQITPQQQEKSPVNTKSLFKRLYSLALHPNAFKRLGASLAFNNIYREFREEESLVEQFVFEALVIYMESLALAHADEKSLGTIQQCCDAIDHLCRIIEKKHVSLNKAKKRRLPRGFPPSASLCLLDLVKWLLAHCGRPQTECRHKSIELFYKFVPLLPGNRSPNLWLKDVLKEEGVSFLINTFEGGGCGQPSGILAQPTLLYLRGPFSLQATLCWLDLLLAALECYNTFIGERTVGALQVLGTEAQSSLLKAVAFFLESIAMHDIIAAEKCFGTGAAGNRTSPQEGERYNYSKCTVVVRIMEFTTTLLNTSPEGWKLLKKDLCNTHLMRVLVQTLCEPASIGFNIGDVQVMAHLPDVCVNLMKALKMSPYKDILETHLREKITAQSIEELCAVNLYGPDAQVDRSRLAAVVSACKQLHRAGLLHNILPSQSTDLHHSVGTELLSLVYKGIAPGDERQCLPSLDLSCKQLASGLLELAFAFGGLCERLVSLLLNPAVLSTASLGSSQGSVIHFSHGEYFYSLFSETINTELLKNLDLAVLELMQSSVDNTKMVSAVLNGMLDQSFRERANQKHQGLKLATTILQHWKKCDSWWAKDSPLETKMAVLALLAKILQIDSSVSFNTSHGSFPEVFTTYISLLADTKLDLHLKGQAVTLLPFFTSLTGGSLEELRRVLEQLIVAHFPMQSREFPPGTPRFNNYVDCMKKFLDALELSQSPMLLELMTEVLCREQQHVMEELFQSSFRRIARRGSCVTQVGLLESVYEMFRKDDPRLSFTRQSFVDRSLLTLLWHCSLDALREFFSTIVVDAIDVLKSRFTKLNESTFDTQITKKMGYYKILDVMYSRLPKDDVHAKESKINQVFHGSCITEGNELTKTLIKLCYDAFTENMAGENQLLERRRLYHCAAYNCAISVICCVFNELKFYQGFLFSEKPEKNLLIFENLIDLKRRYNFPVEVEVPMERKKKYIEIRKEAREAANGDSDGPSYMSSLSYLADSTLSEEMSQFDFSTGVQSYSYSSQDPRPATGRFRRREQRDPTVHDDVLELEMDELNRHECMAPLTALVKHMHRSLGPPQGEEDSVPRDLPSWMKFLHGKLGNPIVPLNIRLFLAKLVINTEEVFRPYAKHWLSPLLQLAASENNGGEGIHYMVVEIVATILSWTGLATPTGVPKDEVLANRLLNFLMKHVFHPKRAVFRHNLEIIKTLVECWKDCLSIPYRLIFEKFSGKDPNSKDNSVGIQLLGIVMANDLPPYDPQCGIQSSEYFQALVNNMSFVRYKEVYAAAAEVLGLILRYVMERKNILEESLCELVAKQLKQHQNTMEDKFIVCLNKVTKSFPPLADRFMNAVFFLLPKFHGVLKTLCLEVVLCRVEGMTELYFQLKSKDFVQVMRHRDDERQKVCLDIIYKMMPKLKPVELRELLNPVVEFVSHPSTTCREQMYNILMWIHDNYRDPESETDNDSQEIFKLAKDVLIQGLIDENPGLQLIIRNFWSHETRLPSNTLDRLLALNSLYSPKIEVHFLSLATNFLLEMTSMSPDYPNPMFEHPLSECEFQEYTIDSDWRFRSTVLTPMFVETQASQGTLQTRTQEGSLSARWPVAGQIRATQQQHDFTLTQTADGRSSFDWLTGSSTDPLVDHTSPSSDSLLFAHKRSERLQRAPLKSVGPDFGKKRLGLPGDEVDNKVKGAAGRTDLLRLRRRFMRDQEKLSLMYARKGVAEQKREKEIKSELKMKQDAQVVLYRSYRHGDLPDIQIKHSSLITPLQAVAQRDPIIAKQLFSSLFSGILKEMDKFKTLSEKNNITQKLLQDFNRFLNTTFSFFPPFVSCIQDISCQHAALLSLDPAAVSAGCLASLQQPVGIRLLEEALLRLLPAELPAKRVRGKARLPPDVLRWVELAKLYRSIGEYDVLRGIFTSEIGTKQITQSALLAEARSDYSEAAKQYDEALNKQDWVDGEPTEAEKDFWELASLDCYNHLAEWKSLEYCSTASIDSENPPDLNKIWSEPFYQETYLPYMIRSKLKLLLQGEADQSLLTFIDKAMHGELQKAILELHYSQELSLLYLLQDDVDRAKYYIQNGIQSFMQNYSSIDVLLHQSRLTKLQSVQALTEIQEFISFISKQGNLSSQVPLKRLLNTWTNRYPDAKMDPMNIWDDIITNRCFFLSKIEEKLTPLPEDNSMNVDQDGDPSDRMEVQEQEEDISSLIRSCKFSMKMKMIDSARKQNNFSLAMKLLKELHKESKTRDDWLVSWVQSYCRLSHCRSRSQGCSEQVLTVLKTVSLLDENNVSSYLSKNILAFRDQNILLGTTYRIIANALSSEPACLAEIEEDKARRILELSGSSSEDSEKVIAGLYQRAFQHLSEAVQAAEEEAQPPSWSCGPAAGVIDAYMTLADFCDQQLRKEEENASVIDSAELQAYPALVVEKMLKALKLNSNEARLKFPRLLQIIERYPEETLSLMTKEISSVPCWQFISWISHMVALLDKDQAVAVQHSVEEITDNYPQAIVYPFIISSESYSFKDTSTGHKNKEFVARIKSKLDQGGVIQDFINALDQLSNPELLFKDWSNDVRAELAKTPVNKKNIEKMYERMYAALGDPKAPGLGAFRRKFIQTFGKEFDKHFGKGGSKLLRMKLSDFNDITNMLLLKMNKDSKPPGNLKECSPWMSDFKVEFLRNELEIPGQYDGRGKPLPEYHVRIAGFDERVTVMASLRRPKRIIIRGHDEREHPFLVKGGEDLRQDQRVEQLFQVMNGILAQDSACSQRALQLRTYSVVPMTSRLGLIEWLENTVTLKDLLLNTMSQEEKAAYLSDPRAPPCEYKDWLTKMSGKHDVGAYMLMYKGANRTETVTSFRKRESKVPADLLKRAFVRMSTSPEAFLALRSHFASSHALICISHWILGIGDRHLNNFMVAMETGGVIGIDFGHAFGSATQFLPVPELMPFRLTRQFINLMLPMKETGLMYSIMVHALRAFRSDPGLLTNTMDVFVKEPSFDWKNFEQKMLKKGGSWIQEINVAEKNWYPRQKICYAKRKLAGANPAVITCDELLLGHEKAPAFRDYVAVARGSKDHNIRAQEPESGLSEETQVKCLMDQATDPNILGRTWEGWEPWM

| Compound | inhibition of growth at 10 µM (SR) [%] | inhibition of growth at 10 µM [1] [%] | inhibition of growth at 10 µM [2] [%] | inhibition of growth at 10 µM [3] [%] | inhibition of growth at 10 µM [4] [%] | inhibition of growth at 10 µM [5] [%] | inhibition of growth at 10 µM (K562) [%] | inhibition of growth at 10 µM (NCI-H23) [%] | inhibition of growth at 10 µM [6] [%] | inhibition of growth at 10 µM [7] [%] | inhibition of growth at 10 µM (MDA-MB-435) [%] | inhibition of growth at 10 µM [8] [%] | inhibition of growth at 10 µM (T47D) [%] | inhibition of growth at 10 µM (HT-29) [%] | inhibition of growth at 10 µM (A498) [%] | inhibition of growth at 10 µM [10] [%] | inhibition of growth at 10 µM [11] [%] | inhibition of growth at 10 µM (M14) [%] | inhibition of growth at 10 µM (SN12C) [%] | inhibition of growth at 10 µM [12] [%] | also measured |
| --- | --- | --- | --- | --- | --- | --- | --- | --- | --- | --- | --- | --- | --- | --- | --- | --- | --- | --- | --- | --- | --- |
| O=c1nc(N2CCOCC2)oc2c(-c3cccc4c3sc3ccccc34)cccc12 | 50.9 | 5.95 | 53 | 15.2 | 38.4 | 20.2 | 20.6 | 13.4 | 7.25 | 19.7 | 4.77 | 3.55 | 42.8 | 16.9 | 46.4 | 24.8 | 26.8 | 3.09 | 18 | 19.2 | inhibition of growth at 10 µM [9]: 53.8%; inhibition of growth at 10 µM (ACHN): 22.3%; inhibition of growth at 10 µM [13]: 5.8%; inhibition of growth at 10 µM (MCF7): 30.5%; inhibition of growth at 10 µM (MDA-MB-231): 29.5%; IC50 [14]: 0.034 µM; inhibition of growth at 10 µM [15]: 15%; inhibition of growth at 10 µM [16]: 40.5%; inhibition of growth at 10 µM [17]: 13.4%; inhibition of growth at 10 µM [18]: 18.7%; inhibition of growth at 10 µM (NCI-H522): 28.6%; inhibition of growth at 10 µM [19]: 13.7%; inhibition of growth at 10 µM (SK-MEL-28): -2.77%; inhibition of growth at 10 µM [20]: 18.8%; inhibition of growth at 10 µM (A549): 22.5%; inhibition of growth at 10 µM [21]: 11% |
| O=c1nc(N2CCOCC2)oc2c(-c3cccc4ccccc34)cccc12 | 27.1 | 2.12 | 53.1 | 19.4 | 38.9 | 14.8 | 9.87 | 10.7 | 2.95 | 3.86 | -1.44 | -9.26 | 20.3 | 10.4 | 92 | 16.2 | 19.2 | 6.76 | 17.7 | 16.3 | inhibition of growth at 10 µM [9]: 39.9%; inhibition of growth at 10 µM (ACHN): 18.4%; inhibition of growth at 10 µM [13]: 2.34%; inhibition of growth at 10 µM (MCF7): 10.2%; inhibition of growth at 10 µM (MDA-MB-231): 6.52%; IC50 [14]: 20.3 µM; inhibition of growth at 10 µM [15]: 24.6%; inhibition of growth at 10 µM [16]: 40.3%; inhibition of growth at 10 µM [17]: 6.69%; inhibition of growth at 10 µM [18]: 3.34%; inhibition of growth at 10 µM (NCI-H522): 18%; inhibition of growth at 10 µM [19]: 14.2%; inhibition of growth at 10 µM (SK-MEL-28): 5.64%; inhibition of growth at 10 µM [20]: 10.8%; inhibition of growth at 10 µM (A549): 14.4%; inhibition of growth at 10 µM [21]: 10.8% |
| NC(=O)c1ccc(-c2cccc3c(=O)nc(N4CCOCC4)oc23)cc1 | 8.01 | -3.57 | 25.5 | 6.21 | -4.38 | -1.1 | -10.4 | 7.55 | 9.54 | -4.18 | -6.9 | -1.23 | 12.2 | -0.51 | 1.82 | 2.8 | 4.92 | 2.25 | -3.74 | 2.66 | inhibition of growth at 10 µM (ACHN): -0.43%; inhibition of growth at 10 µM [13]: -3.19%; inhibition of growth at 10 µM (MCF7): 9.68%; inhibition of growth at 10 µM (MDA-MB-231): 8.08%; IC50 [14]: 8.81 µM; inhibition of growth at 10 µM [15]: -3.1%; inhibition of growth at 10 µM [16]: 10.1%; inhibition of growth at 10 µM [17]: -2.19%; inhibition of growth at 10 µM [18]: -3.97%; inhibition of growth at 10 µM (NCI-H522): 10.4%; inhibition of growth at 10 µM [19]: 0.57%; inhibition of growth at 10 µM (SK-MEL-28): -3.25%; inhibition of growth at 10 µM [20]: 3.19%; inhibition of growth at 10 µM (A549): -0.08%; inhibition of growth at 10 µM [21]: 6.07% |
| O=c1nc(N2CCOCC2)oc2ccc(-c3cccc4c3sc3ccccc34)cc12 | 19.5 | 5.25 | 10.5 | -3.32 | -5.78 | 0.97 | 10.7 | -2.37 | 2.78 | 3.98 | 1.87 | -17.8 | 16.6 | -13.4 | 37.4 | 1.62 | 4.6 | 2.99 | 6.33 | 2.44 | inhibition of growth at 10 µM [9]: 41.6%; inhibition of growth at 10 µM (ACHN): -1.95%; inhibition of growth at 10 µM [13]: -3.21%; inhibition of growth at 10 µM (MCF7): 21%; inhibition of growth at 10 µM (MDA-MB-231): 12.8%; inhibition of growth at 10 µM [15]: -5.28%; inhibition of growth at 10 µM [16]: 39.9%; inhibition of growth at 10 µM [17]: 29.8%; inhibition of growth at 10 µM [18]: 8.17%; inhibition of growth at 10 µM (NCI-H522): -2.38%; inhibition of growth at 10 µM [19]: -11.1%; inhibition of growth at 10 µM (SK-MEL-28): 4.76%; inhibition of growth at 10 µM [20]: 0.51%; inhibition of growth at 10 µM (A549): 5.3%; inhibition of growth at 10 µM [21]: 0.5% |
